Experimental data reported in patent US8802597B2, “Herbicidal pyrimidines” (E I du Pont de Nemours and Company, priority 2003, dated 2014).

Legend:
Type in all cases: in vivo
[1] = test system: barnyardgrass (Echinochloa crus-galli); assay: Test B pre/postemergence
How it was run: (§1)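 Test chemicals in a non-phytotoxic solvent mixture with surfactant were applied preemergence to planted seeds and postemergence to plants 2 to 18 cm tall (1- to 4-leaf stage). After 13 to 15 days in a greenhouse, injury was visually rated against untreated controls on a 0 to 100 scale.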

[2] = test system: giant foxtail (Setaria faberii); assay: Test B pre/postemergence
How it was run: as §1

[3] = test system: lambsquarters (Chenopodium album); assay: Test B pre/postemergence
How it was run: as §1

[4] = test system: velvetleaf (Abutilon theophrasti); assay: Test B pre/postemergence
How it was run: as §1

[5] = test system: wheat (Triticum aestivum); assay: Test B pre/postemergence
How it was run: as §1

[6] = test system: cocklebur (Xanthium strumarium); assay: Test B pre/postemergence
How it was run: as §1

corn (Zea mays) = assay: Test B pre/postemergence
How it was run: as §1

[7] = test system: morningglory (Ipomoea coccinea); assay: Test B pre/postemergence
How it was run: as §1

[8] = test system: Surinam grass (Brachiaria decumbens); assay: Test B pre/postemergence
How it was run: as §1

[9] = test system: pigweed (Amaranthus retroflexus); assay: Test B pre/postemergence
How it was run: as §1

[10] = test system: crabgrass (Digitaria sanguinalis); assay: Test B pre/postemergence
How it was run: as §1

[11] = test system: barnyardgrass (Echinochloa crus-galli); assay: Test B flooded paddy test; conditions: Flood, 1000 g ai/ha; scale 0 (no effect) to 100 (complete control)
How it was run: (§2)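 Plants were grown to the 2-leaf stage before treatment, then kept in a greenhouse for 13 to 15 days. Injury was rated visually against untreated controls on a 0 to 100 scale, where 0 is no effect and 100 is complete control.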

rice (Oryza sativa) = assay: Test B flooded paddy test; conditions: Flood, 1000 g ai/ha; scale 0 to 100
How it was run: as §2

[12] = test system: umbrella sedge (Cyperus difformis); assay: Test B flooded paddy test; conditions: Flood, 1000 g ai/ha; scale 0 to 100
How it was run: as §2

[13] = test system: duck salad (Heteranthera limosa); assay: Test B flooded paddy test; conditions: Flood, 1000 g ai/ha; scale 0 to 100
How it was run: as §2

wild oat (Avena fatua) = assay: Test B postemergence; conditions: for Oat, Wild plant response rating: 125 g ai/ha, scale 0 to 100 (0 no effect, 100 complete control); for Plant response rating, Oat, Wild: 500 g ai/ha, scale 0 to 100
How it was run: as §1

[14] = test system: blackgrass (Alopecurus myosuroides); assay: Test B postemergence; conditions: for Blackgrass plant response rating: 125 g ai/ha, scale 0 to 100 (0 no effect, 100 complete control); for Plant response rating, Blackgrass: 500 g ai/ha, scale 0 to 100
How it was run: as §1

[15] = Postemergence, 125 g ai/ha, scale 0 to 100 (0 no effect, 100 complete control)
[16] = Postemergence, 500 g ai/ha, scale 0 to 100
[17] = Preemergence, 125 g ai/ha, scale 0 to 100 (0 no effect, 100 complete control)
[18] = Preemergence, 500 g ai/ha, scale 0 to 100 (0 no effect, 100 complete control)

CCCCOC(=O)c1nc(C2CC2)nc(N)c1Br [Compound 16]
40: Plant response rating, Surinam Grass [8, 17]
50: Plant response rating, Wheat [5, 17]
60: Plant response rating, Wheat [5, 16] | Wheat plant response rating [5, 18] | Surinam Grass plant response rating [8, 15] | Plant response rating, Sedge, Umbrella [12] | Plant response rating, Oat, Wild (wild oat (Avena fatua))
90: Plant response rating, Barnyardgrass [1, 16] | Barnyardgrass plant response rating [1, 18] | Plant response rating, Velvetleaf [4, 16] | Cocklebur plant response rating [6, 15] | Plant response rating, Morningglory [7, 17] | Plant response rating, Surinam Grass [8, 16] | Pigweed plant response rating [9, 15] | Plant response rating, Pigweed [9, 17] | Pigweed plant response rating [9, 18] | Plant response rating, Barnyardgrass [11] | Plant response rating, Ducksalad [13]
10: Oat, Wild plant response rating (wild oat (Avena fatua)) | Blackgrass plant response rating [14]
100: Lambsquarters plant response rating [3, 15] | Plant response rating, Lambsquarters [3, 16] | Plant response rating, Lambsquarters [3, 17] | Lambsquarters plant response rating [3, 18] | Velvetleaf plant response rating [4, 18] | Plant response rating, Cocklebur [6, 16] | Cocklebur plant response rating [6, 18] | Morningglory plant response rating [7, 15] | Plant response rating, Morningglory [7, 16] | Morningglory plant response rating [7, 18] | Plant response rating, Pigweed [9, 16] | Crabgrass plant response rating [10, 18]
30: Plant response rating, Barnyardgrass [1, 17] | Foxtail, Giant plant response rating [2, 15] | Plant response rating, Foxtail, Giant [2, 17] | Wheat plant response rating [5, 15] | Corn plant response rating (corn (Zea mays); [15]) | Plant response rating, Corn (corn (Zea mays); [17]) | Crabgrass plant response rating [10, 15]
80: Plant response rating, Foxtail, Giant [2, 16] | Foxtail, Giant plant response rating [2, 18] | Velvetleaf plant response rating [4, 15] | Plant response rating, Velvetleaf [4, 17] | Plant response rating, Corn (corn (Zea mays); [16]) | Surinam Grass plant response rating [8, 18] | Plant response rating, Crabgrass [10, 16]
70: Barnyardgrass plant response rating [1, 15] | Plant response rating, Cocklebur [6, 17] | Corn plant response rating (corn (Zea mays); [18]) | Plant response rating, Crabgrass [10, 17] | Plant response rating, Rice (rice (Oryza sativa)) | Plant response rating, Blackgrass [14]

CC(C)COC(=O)c1nc(C2CC2)nc(N)c1Br [Compound 17]
20: Barnyardgrass plant response rating [1, 15] | Plant response rating, Barnyardgrass [1, 17] | Plant response rating, Foxtail, Giant [2, 17] | Crabgrass plant response rating [10, 15]
40: Plant response rating, Wheat [5, 17]
10: Foxtail, Giant plant response rating [2, 15]
60: Velvetleaf plant response rating [4, 15] | Plant response rating, Wheat [5, 16] | Wheat plant response rating [5, 18] | Corn plant response rating (corn (Zea mays); [18])
0: Wheat plant response rating [5, 15] | Corn plant response rating (corn (Zea mays); [15]) | Plant response rating, Corn (corn (Zea mays); [17]) | Oat, Wild plant response rating (wild oat (Avena fatua)) | Blackgrass plant response rating [14]
100: Lambsquarters plant response rating [3, 15] | Plant response rating, Lambsquarters [3, 16] | Lambsquarters plant response rating [3, 18] | Plant response rating, Velvetleaf [4, 16] | Cocklebur plant response rating [6, 15] | Plant response rating, Cocklebur [6, 16] | Morningglory plant response rating [7, 15] | Plant response rating, Morningglory [7, 16] | Plant response rating, Morningglory [7, 17] | Morningglory plant response rating [7, 18] | Pigweed plant response rating [9, 18] | Crabgrass plant response rating [10, 18]
80: Barnyardgrass plant response rating [1, 18] | Plant response rating, Cocklebur [6, 17] | Plant response rating, Corn (corn (Zea mays); [16]) | Plant response rating, Surinam Grass [8, 16] | Plant response rating, Pigweed [9, 17] | Plant response rating, Barnyardgrass [11]
70: Plant response rating, Foxtail, Giant [2, 16] | Foxtail, Giant plant response rating [2, 18] | Plant response rating, Velvetleaf [4, 17] | Pigweed plant response rating [9, 15] | Plant response rating, Crabgrass [10, 17] | Plant response rating, Blackgrass [14]
90: Plant response rating, Barnyardgrass [1, 16] | Plant response rating, Lambsquarters [3, 17] | Velvetleaf plant response rating [4, 18] | Cocklebur plant response rating [6, 18] | Surinam Grass plant response rating [8, 18] | Plant response rating, Pigweed [9, 16] | Plant response rating, Ducksalad [13]
50: Plant response rating, Crabgrass [10, 16] | Plant response rating, Rice (rice (Oryza sativa)) | Plant response rating, Sedge, Umbrella [12] | Plant response rating, Oat, Wild (wild oat (Avena fatua))
30: Surinam Grass plant response rating [8, 15] | Plant response rating, Surinam Grass [8, 17]
